Laboratory results published in patent US9504725B2, “Compositions and functional foods for treating and preventing obesity using polygonum cuspidatum butanol fraction and ethyl acetate fraction” (KOREA INSTITUTE OF ORIENTAL MEDICINE, priority 2009, dated 2016).

What was measured:
[1] = target: T1, porcine pancreatic lipase (Sus scrofa, UniProt P00591); test: Inhibition of porcine pancreatic lipase activity (p-NPB hydrolysis); type: biochemical
T1 construct: purchased Sigma, St. Louis, Mo., USA
T1 sequence (P00591 1-450): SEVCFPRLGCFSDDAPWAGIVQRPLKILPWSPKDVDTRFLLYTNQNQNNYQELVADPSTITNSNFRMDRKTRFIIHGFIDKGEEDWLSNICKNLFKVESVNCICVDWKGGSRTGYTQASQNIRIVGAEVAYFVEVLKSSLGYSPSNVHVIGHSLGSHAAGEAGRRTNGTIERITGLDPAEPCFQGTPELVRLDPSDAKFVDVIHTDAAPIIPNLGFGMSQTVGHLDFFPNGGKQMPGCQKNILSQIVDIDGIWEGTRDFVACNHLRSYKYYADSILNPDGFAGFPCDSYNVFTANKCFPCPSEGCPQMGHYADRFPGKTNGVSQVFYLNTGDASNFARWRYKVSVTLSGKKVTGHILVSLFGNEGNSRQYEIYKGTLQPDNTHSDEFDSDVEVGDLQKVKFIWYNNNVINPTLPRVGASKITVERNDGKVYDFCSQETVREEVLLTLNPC

[2] = Inhibitory effect on short term absorption of lipid emulsions in animals (triglyceride after oral lipid emulsion); type: in vivo, male wistar rats
[3] = Obesity-preventive effect in high-fat diet-fed mice (body weight, fats, adipocyte size, serum lipids, fatty liver, insulin); type: in vivo, male C57BL/6 mice
[4] = high-fat feed mixed with drug (POCU 1%, Xenical 0.1%), 10 weeks

## Oc1ccc(/C=C/c2cc(O)cc(O)c2)cc1 [Resveratrol, trans-resveratrol]
[1]; 50 μg/mL, read-out: Inhibitory effect on pancreatic lipase activity (%)
  inhibition at 50 µg/mL: 32.4 ± 3%
[1]; 100 μg/mL, read-out: Inhibitory effect on pancreatic lipase activity (%)
  inhibition at 100 µg/mL: 47.2 ± 1.6%
[1]; porcine pancreatic lipase, p-NPB substrate
  IC50: 543 µM
[2]; 10 mg/kg oral with lipid emulsion, 0 h (before administration)
  Concentration of serum triglyceride: 147.0 ± 4.2 mg/dL
[2]; 10 mg/kg oral with lipid emulsion, 1 h
  Concentration of serum triglyceride: 212.5 ± 14.0 mg/dL
[2]; 10 mg/kg oral with lipid emulsion, 2 h
  Concentration of serum triglyceride: 219.3 ± 77.3 mg/dL
[2]; 10 mg/kg oral with lipid emulsion, 3 h
  Concentration of serum triglyceride: 195.5 ± 25.9 mg/dL
[2]; 10 mg/kg oral with lipid emulsion, 4 h
  Concentration of serum triglyceride: 193.2 ± 12.1 mg/dL
[2]; 50 mg/kg oral with lipid emulsion, 0 h (before administration)
  Concentration of serum triglyceride: 146.1 ± 1.4 mg/dL
[2]; 50 mg/kg oral with lipid emulsion, 1 h
  Concentration of serum triglyceride: 208.3 ± 31.0 mg/dL
[2]; 50 mg/kg oral with lipid emulsion, 2 h
  Concentration of serum triglyceride: 228.0 ± 58.4 mg/dL
[2]; 50 mg/kg oral with lipid emulsion, 3 h
  Concentration of serum triglyceride: 198.8 ± 62.3 mg/dL
[2]; 50 mg/kg oral with lipid emulsion, 4 h
  Concentration of serum triglyceride: 183.7 ± 50.3 mg/dL
[2]; 250 mg/kg oral with lipid emulsion, 2 h
  Concentration of serum triglyceride: 228.5 ± 8.4 mg/dL

## CCCCCCCCCCC[C@@H](C[C@@H]1OC(=O)[C@H]1CCCCCC)OC(=O)[C@H](CC(C)C)NC=O [Xenical, tetrahydrolipstatin (orlistat)]
[2]; 200 mg/kg oral with lipid emulsion, 0 h (before administration)
  Concentration of serum triglyceride: 159.6 ± 19.0 mg/dL
[2]; 200 mg/kg oral with lipid emulsion, 1 h
  Concentration of serum triglyceride: 133.7 ± 11.3 mg/dL
[2]; 200 mg/kg oral with lipid emulsion, 2 h
  Concentration of serum triglyceride: 124.4 ± 18.0 mg/dL
[2]; 200 mg/kg oral with lipid emulsion, 3 h
  Concentration of serum triglyceride: 118.1 ± 24.5 mg/dL
[2]; 200 mg/kg oral with lipid emulsion, 4 h
  Concentration of serum triglyceride: 120.9 ± 12.5 mg/dL
[3]; H&E stained adipose tissue, high-fat diet group 125 μm
  adipocyte size: 75 μm
[3]; [4]
  gonadal fat weight: 0.17 g
  perirenal fat weight: 0.04 g
  subcutaneous fat weight: 0.14 g
[3]; high-fat feed mixed with drug, 10 weeks, high-fat diet group 10.9 g
  extent of body weight gain: 6.1 g
